Source: US20080090767A1, “Agent for prophylaxis of reflex sympathetic dystrophy after cerebral apoplexy” (Asahi Kasei Pharma Corporation, priority 2006, published 2008)

Columns and labels:
[1] = system: patients with hemiplegia attributed to cerebrovascular disease (stroke) who developed RSD (shoulder-hand syndrome); assay: Test of treatment of post-stroke RSD (Reference Example 1); type: in vivo, human
Method: EL was administered after the onset of RSD (shoulder-hand syndrome) in the same use and dose as in Example 1 to 11 patients with hemiplegia attributed to cerebrovascular disease (stroke) at Brunnstrom stage III or lower in either the upper limb or a finger on admission, who developed RSD (shoulder-hand syndrome). These patients were classified into a therapeutic administration group. On the other hand, the EL administration group of Example 1 was compared as a control (preventive administration group) with the therapeutic administration group.

[2] = system: patients with hemiplegia attributed to cerebrovascular disease (stroke) at Brunnstrom stage III or lower, not yet developing RSD; assay: Test of prevention of onset of post-stroke RSD (Example 1); type: in vivo, human
Source text: Test subjects were 32 patients with hemiplegia attributed to cerebrovascular disease (stroke) at Brunnstrom stage III or lower in either the upper limb or a finger on admission. Patients already developing RSD (shoulder-hand syndrome) on admission and patients with pain in the shoulder joint or swollen paralyzed limbs were excluded from the test. […] On the other hand, 21 test subjects were classified into a rehabilitation alone group (control group) and compared with the EL administration group. Physical therapy and therapeutic exercise, occupational therapy, and the management of the paralyzed limbs were performed thoroughly in all the cases. […] EL administration was initiated 11 to 59 days after an attack of stroke (25.8 days on average) and continued until 5 months after the attack of stroke. The same observation period was applied to the control group. The test subjects were diagnosed as developing RSD (shoulder-hand syndrome) if they had diffuse pain not localized to the shoulder joint, edema involving skin color changes, skin temperature abnormalities, and range of motion limitations, and the practice of their rehabilitation was restricted. These criteria agreed to Veldman's diagnostic criteria or diagnostic criteria for CRPS-type 1 provided by the International Association for the Study of Pain.
Activities of daily living (ADL) were evaluated on the basis of the Barthel Index (BI) and the range of motion (ROM) of shoulder joint. The movable range of shoulder joint (also referred to as “shoulder ROM”) was regarded as restricted (Shoulder-ROM-restrictions were present.) if either abduction or flexion was restricted in measurement. The test subjects were also examined for sensory impairment, aphasia, and unilateral spatial neglect on admission.
Statistical analysis was conducted with unpaired t-test, Fisher's exact test or Wilcoxon test, and 5% or lower significance level was regarded as being significant.

[3] = system: RSD triggered and developed by a trauma or surgical invasion; conditions: literature report; cited from earlier work
[4] = therapeutic administration group
[5] = EL preventive administration group, 20 units i.m. once a week, until 5 months after the attack of stroke
[6] = preventive administration group

1-butyric acid-7-(L-2-aminobutyric acid)-26-L-aspartic acid-27-L-valine-29-L-alanine-calcitonin [elcatonin]
Barthel index, Average ± SE (at completion of administration) [1, 4]: 31.8 ± 7.8 | Barthel index, Median (at completion of administration) [1, 4]: 25 | No RSD, the number of persons (at completion of administration) ([1]; therapeutic administration group (EL after onset of RSD)): 0 | Incidence of RSD converted to incidence in all patients with hemiplegia attributed to stroke in the facility ([2]; EL administration group): approximately 1.3% | Incidence of RSD (cases that developed RSD) ([2]; EL preventive administration group, 1 of the 12 cases): 8.3% | The number of test subjects developing post-stroke RSD: Developed [2, 5]: 1 | The number of test subjects developing post-stroke RSD: Not developed [2, 5]: 11 | Incidence of RSD when EL administration was initiated within 48 days after stroke ([2]; administration initiated within 48 days after stroke): 0% | Barthel index, Average ± SE (at completion of administration) [2, 6]: 60.8 ± 9.3 | Barthel index, Median (at completion of administration) [2, 6]: 72.5 | No RSD, the number of persons (at completion of administration) [2, 6]: 11

O=C1O[C@H]([C@@H](O)CO)C(O)=C1O [vitamin C]
Effect on the initial onset of RSD in subjects having no anamnesis of RSD after a trauma or surgical invasion [3]: preventive effect
